Measured values as given in patent US20230263822A1, “MODULATION OF FACTOR 11 EXPRESSION” (Ionis Pharmaceuticals, Inc., priority 2008, published 2023).

Assay: Hematology assays in cynomolgus monkeys (Example 45)
Assay type: in vivo
Details: for MCH / MCHC / MCV / RBC count / WBC count / hematocrit / hemoglobin: escalating dose regimen
How it was run: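 Cynomolgus monkeys (2 male, 3 female per group) dosed subcutaneously with antisense oligonucleotide or PBS, escalating 5, 10, then 25 mg/kg two to three times weekly over 12 weeks; one chronic group held at 10 mg/kg from week 4. Blood sampled weekly; necropsy on day 85.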

Substance: ISIS 416864: MOE gapmer, nucleobases 1275 to 1318 of SEQ ID NO: 1 (Table 8) (antisense GGCAGCGGACGGCATTGGTG; MOE gapmer, wing and gap sizes not given here)
- MCH (Day 64): 23 pg
- MCH (Day 71): 23 pg
- MCH (Day 78): 23 pg
- MCH (Day 85): 23 pg
- basophils (day 8): 0.2%
- eosinophils (day 8): 0.7%
- lymphocytes (day 8): 45%
- monocytes (day 8): 2.1%
- neutrophils (day 8): 52%
- platelet count (day 8): 438000 µL⁻¹
- reticulocytes (day 8): 0.8%
- MCH (day 8): 23 pg
- MCHC (day 8): 29 g/dL
- MCV (day 8): 78 fL
- RBC count (day 8): 5.7e+06 µL⁻¹
- WBC count (day 8): 11000 µL⁻¹
- hematocrit (day 8): 44%
- hemoglobin (day 8): 12.7 g/dL
- basophils (day 15): 0.2%
- eosinophils (day 15): 0.5%
- lymphocytes (day 15): 38%
- monocytes (day 15): 2.4%
- neutrophils (day 15): 59%
- platelet count (day 15): 439000 µL⁻¹
- reticulocytes (day 15): 0.8%
- MCH (day 15): 23 pg
- MCHC (day 15): 30 g/dL
- MCV (day 15): 74 fL
- RBC count (day 15): 5.7e+06 µL⁻¹
- WBC count (day 15): 10000 µL⁻¹
- hematocrit (day 15): 42%
- hemoglobin (day 15): 12.8 g/dL
- basophils (day 22): 0.2%
- eosinophils (day 22): 0.9%
- lymphocytes (day 22): 37%
- monocytes (day 22): 2.8%
- neutrophils (day 22): 59%
- platelet count (day 22): 364000 µL⁻¹
- reticulocytes (day 22): 0.9%
- MCH (day 22): 23 pg
- MCHC (day 22): 29 g/dL
- MCV (day 22): 79 fL
- RBC count (day 22): 5.3e+06 µL⁻¹
- WBC count (day 22): 10000 µL⁻¹
- hematocrit (day 22): 42%
- hemoglobin (day 22): 12.1 g/dL
- basophils (day 29): 0.3%
- eosinophils (day 29): 0.9%
- lymphocytes (day 29): 51%
- monocytes (day 29): 3.4%
- neutrophils (day 29): 44%
- platelet count (day 29): 397000 µL⁻¹
- reticulocytes (day 29): 1.3%
- MCH (day 29): 23 pg
- MCHC (day 29): 29 g/dL
- MCV (day 29): 80 fL
- RBC count (day 29): 5.3e+06 µL⁻¹
- WBC count (day 29): 10000 µL⁻¹
- hematocrit (day 29): 43%
- hemoglobin (day 29): 12.1 g/dL
- basophils (day 36): 0.3%
- eosinophils (day 36): 0.6%
- lymphocytes (day 36): 38%
- monocytes (day 36): 2.3%
- neutrophils (day 36): 58%
- platelet count (day 36): 428000 µL⁻¹
- reticulocytes (day 36): 1.3%
- MCH (day 36): 23 pg
- MCHC (day 36): 30 g/dL
- MCV (day 36): 76 fL
- RBC count (day 36): 5.6e+06 µL⁻¹
- WBC count (day 36): 10000 µL⁻¹
- hematocrit (day 36): 42%
- hemoglobin (day 36): 12.5 g/dL
- basophils (day 43): 0.4%
- eosinophils (day 43): 0.6%
- lymphocytes (day 43): 39%
- monocytes (day 43): 2.1%
- neutrophils (day 43): 57%
- platelet count (day 43): 351000 µL⁻¹
- reticulocytes (day 43): 1.1%
- MCH (day 43): 22 pg
- MCHC (day 43): 29 g/dL
- MCV (day 43): 77 fL
- RBC count (day 43): 5.5e+06 µL⁻¹
- WBC count (day 43): 10000 µL⁻¹
- hematocrit (day 43): 42%
- hemoglobin (day 43): 12.2 g/dL
- basophils (day 50): 0.4%
- eosinophils (day 50): 0.7%
- lymphocytes (day 50): 46%
- monocytes (day 50): 2.9%
- neutrophils (day 50): 49%
- platelet count (day 50): 419000 µL⁻¹
- reticulocytes (day 50): 1.3%
- MCH (day 50): 22 pg
- MCHC (day 50): 28 g/dL
- MCV (day 50): 79 fL
- RBC count (day 50): 5.6e+06 µL⁻¹
- WBC count (day 50): 12000 µL⁻¹
- hematocrit (day 50): 44%
- hemoglobin (day 50): 12.1 g/dL
- basophils (day 57): 0.3%
- eosinophils (day 57): 0.4%
- lymphocytes (day 57): 39%
- monocytes (day 57): 2.4%
- neutrophils (day 57): 57%
- platelet count (day 57): 409000 µL⁻¹
- reticulocytes (day 57): 1.0%
- MCH (day 57): 23 pg
- MCHC (day 57): 29 g/dL
- MCV (day 57): 77 fL
- RBC count (day 57): 5.5e+06 µL⁻¹
- WBC count (day 57): 12000 µL⁻¹
- hematocrit (day 57): 42%
- hemoglobin (day 57): 12.3 g/dL
- basophils (day 64): 0.4%
- eosinophils (day 64): 0.7%
- lymphocytes (day 64): 46%
- monocytes (day 64): 2.8%
- neutrophils (day 64): 49%
- platelet count (day 64): 383000 µL⁻¹
- reticulocytes (day 64): 0.8%
- MCHC (day 64): 29 g/dL
- MCV (day 64): 75 fL
- RBC count (day 64): 5.6e+06 µL⁻¹
- WBC count (day 64): 11000 µL⁻¹
- hematocrit (day 64): 42%
- hemoglobin (day 64): 12.1 g/dL
- basophils (day 71): 0.4%
- eosinophils (day 71): 1.1%
- lymphocytes (day 71): 52%
- monocytes (day 71): 3.7%
- neutrophils (day 71): 42%
- platelet count (day 71): 394000 µL⁻¹
- reticulocytes (day 71): 1.0%
- MCHC (day 71): 28 g/dL
- MCV (day 71): 79 fL
- RBC count (day 71): 5.6e+06 µL⁻¹
- WBC count (day 71): 14000 µL⁻¹
- hematocrit (day 71): 44%
- hemoglobin (day 71): 12.2 g/dL
- basophils (day 78): 0.3%
- eosinophils (day 78): 1.2%
- lymphocytes (day 78): 46%
- monocytes (day 78): 3.7%
- neutrophils (day 78): 48%
- platelet count (day 78): 366000 µL⁻¹
- reticulocytes (day 78): 1.2%
- MCHC (day 78): 30 g/dL
- MCV (day 78): 74 fL
- RBC count (day 78): 5.3e+06 µL⁻¹
- WBC count (day 78): 11000 µL⁻¹
- hematocrit (day 78): 39%
- hemoglobin (day 78): 11.9 g/dL
- basophils (day 85): 0.4%
- eosinophils (day 85): 1.6%
- lymphocytes (day 85): 54%
- monocytes (day 85): 3.7%
- neutrophils (day 85): 39%
- platelet count (day 85): 387000 µL⁻¹
- reticulocytes (day 85): 1.5%
- MCHC (day 85): 30 g/dL
- MCV (day 85): 74 fL
- RBC count (day 85): 5.4e+06 µL⁻¹
- WBC count (day 85): 12000 µL⁻¹
- hematocrit (day 85): 40%
- hemoglobin (day 85): 12.3 g/dL
- basophils (day −5): 0.2%
- eosinophils (day −5): 0.9%
- lymphocytes (day −5): 44%
- monocytes (day −5): 3.3%
- neutrophils (day −5): 51%
- platelet count (day −5): 456000 µL⁻¹
- reticulocytes (day −5): 0.9%
- MCH (day −5): 23 pg
- MCHC (day −5): 29 g/dL
- MCV (day −5): 79 fL
- RBC count (day −5): 5.6e+06 µL⁻¹
- WBC count (day −5): 13000 µL⁻¹
- hematocrit (day −5): 44%
- hemoglobin (day −5): 13.0 g/dL
- basophils (day −14): 0.2%
- eosinophils (day −14): 1.0%
- lymphocytes (day −14): 42%
- monocytes (day −14): 2.8%
- neutrophils (day −14): 53%
- platelet count (day −14): 434000 µL⁻¹
- reticulocytes (day −14): 0.9%
- MCH (day −14): 23 pg
- MCHC (day −14): 29 g/dL
- MCV (day −14): 79 fL
- RBC count (day −14): 5.5e+06 µL⁻¹
- WBC count (day −14): 13000 µL⁻¹
- hematocrit (day −14): 43%
- hemoglobin (day −14): 12.7 g/dL
